Assay results: patent US20260216193A1, “TREATMENT OF HAND ECZEMA” (LEO Pharma A/S, priority 2016, published 2026)
“Also recorded” adds a separate entry of the source.

Tested on: subjects with chronic hand eczema
Assay: phase 2a clinical trial, twice daily topical ointment 30 mg/g vs ointment vehicle for 8 weeks
Assay type: in vivo, human
Method: The invention provides a clinical trial to compare efficacy of twice daily topical ointment with 30 mg/g of the compound of formula (I), with an ointment vehicle for 8 weeks in the treatment of hand eczema. The compound of formula (I) is formulated in an ointment containing the active compound in 30 mg/g, white soft paraffin, hard paraffin and squalane. Dosis range will be a thin layer covering the affected areas on the hands corresponding to 1.7 mg/cm^2 of the compound of formula (I). The primary efficacy parameter for ‘treatment success’ is Physician's Global Assessment of disease severity (PGA). […] Patient's Global Assessment of disease severity (PaGA) was recorded at the same visits. • 1. […] In overall good health including well controlled diseases (e.g. hypertension, diabetes and thyroid disease) as determined by medical history, physical examination, electrocardiogram (ECG), vital signs (blood pressure, heart rate and body temperature) and clinical laboratory evaluation. […]

Compound: C[C@H]1CN(C(=O)CC#N)[C@]12CCN(c1ncnc3[nH]ccc13)C2 [compound of formula (I), 3-[(3S,4R)-3-methyl-6-(7H-pyrrolo[2,3-d]pyrimidin-4-yl)-1,6-diazaspiro[3.4]octan-1-yl]-3-oxopropanenitrile]
- “treatment success” according to Physician's Global Assessment of disease severity (PGA) (ointment 30 mg/g twice daily topical vs ointment vehicle, up to 8 weeks, prespecified analysis at week 8, subjects with chronic hand eczema): resulted in “treatment success”; also recorded: statistically significant (P=0.009) difference in favor
- safety and tolerability (ointment 30 mg/g, twice daily topical, patients with hand eczema): safe and well tolerated
